Drawing on patent US8188301B2, “Disubstituted phenylpyrrolidines as modulators of cortical catecholaminergic neurotransmission” (NSAB, Filial af NeuroSearch Sweden AB, Sverige, priority 2007, dated 2012), this text covers melting point for 44 molecules.

Counter-ions that a name gives are not always drawn.

Broadly, the melting point is the temperature, or range, at which the solid turns liquid. As for `CN1CCC(O)(c2ccc(F)c(F)c2)C1` (centres unmarked) (as salt: fumaric acid salt), the melting point was in the range of 164 to 166 °C.
Take `CCN1CCC(O)(c2cccc(Cl)c2F)C1` (centres unmarked) (as salt: fumaric acid salt): the melting point was 142 to 145.5 °C.
`CCCN1CCC(O)(c2ccc(F)c(Cl)c2)C1` (centres unmarked) (as salt: fumaric acid salt) came in with a melting point of 157.9 °C.
As for `CCN1CCC(O)(c2ccc(F)c(F)c2)C1` (centres unmarked) (as salt: fumaric acid salt), the figure is 136 to 137 °C; as for `CN1CCC(O)(c2cc(F)cc(Cl)c2)C1` (centres unmarked) (as salt: fumaric acid salt), 129 to 131 °C.
Molecule `CC(C)N1CCC(O)(c2ccc(F)c(F)c2)C1` (centres unmarked) (as salt: fumaric acid salt) returned a melting point of 143 to 147 °C.
To `CCN1CCC(O)(c2ccc(F)c(Cl)c2)C1` (centres unmarked) (as salt: fumaric acid salt) [Example 3, 3-(3-CHLORO-4-FLUOROPHENYL)-1-ETHYLPYRROLIDIN-3-OL] belongs 157 to 158 °C; to `CCN1CCC(O)(c2cccc(F)c2F)C1` (centres unmarked) (as salt: fumaric acid salt) [Example 4, 3-(2,3-DIFLUOROPHENYL)-1-ETHYLPYRROLIDIN-3-OL], 119 to 120 °C; to `CCCN1CCC(O)(c2cc(F)cc(F)c2)C1` (centres unmarked) (as salt: fumaric acid salt) [Example 9, 3-(3,5-DIFLUOROPHENYL)-1-PROPYLPYRROLIDIN-3-OL], 136 to 137 °C.
To `CCN1CCC(O)(c2ccc(Cl)c(Cl)c2)C1` (centres unmarked) (as salt: fumaric acid salt) [Example 10, 3-(3,4-DICHLOROPHENYL)-1-ETHYLPYRROLIDIN-3-OL] belongs 184 to 185 °C; to `CCN1CCC(O)(c2ccc(F)c(F)c2)C1` (centres unmarked) (as salt: fumaric acid salt) [Example 12, 3-(3,4-DIFLUOROPHENYL)-1-ETHYLPYRROLIDIN-3-OL], 157 to 158 °C.
In turn, `CCCN1CCC(O)(c2ccc(F)c(F)c2)C1` (centres unmarked) (as salt: fumaric acid salt) [Example 27] had a melting point of 127 to 129 °C.
As for `CCCN1CCC(O)(c2ccc(F)c(F)c2)C1` (centres unmarked) (as salt: fumaric acid salt) [Example 28], the figure is 128 to 129 °C; as for `CCCN1CCC(O)(c2cccc(F)c2F)C1` (centres unmarked) (as salt: fumaric acid salt) [Example 33], 97 to 100 °C; as for `CCCN1CCC(O)(c2cccc(F)c2F)C1` (centres unmarked) (as salt: fumaric acid salt) [Example 34], 95 to 98 °C.
Turning to `FC1(c2cc(Cl)cc(Cl)c2)CCNC1` (centres unmarked) (as salt: hydrochloric acid salt) [Example 14, 3-(3,5-DICHLOROPHENYL)-3-FLUOROPYRROLIDINE], the melting point was in the range of 201 to 202 °C.
To `Fc1cccc(C2(F)CCNC2)c1F` (centres unmarked) (as salt: hydrochloric acid salt) [Example 23, 3-(2,3-DIFLUOROPHENYL)-3-FLUOROPYRROLIDINE] belongs 136 °C.
To `CN1CCC(O)(c2ccc(F)cc2F)C1` (centres unmarked) (as salt: oxalic acid salt) belongs 117 to 119 °C; to `CCN1CCC(O)(c2cccc(Cl)c2Cl)C1` (centres unmarked) (as salt: oxalic acid salt), 206 to 207 °C.
To `CCCN1CCC(O)(c2cc(F)cc(Cl)c2)C1` (centres unmarked) (as salt: oxalic acid salt) belongs 157.2 °C; to `CCCCN1CCC(O)(c2cc(F)cc(F)c2)C1` (centres unmarked) (as salt: oxalic acid salt), 146 to 147 °C; to `CN1CCC(O)(c2cccc(Cl)c2F)C1` (centres unmarked) (as salt: oxalic acid salt), 123 to 125 °C.
`CCN1CCC(O)(c2cc(F)cc(Cl)c2)C1` (centres unmarked) (as salt: oxalic acid salt) [Example 5, 3-(3-CHLORO-5-FLUOROPHENYL)-1-ETHYLPYRROLIDIN-3-OL] yielded a melting point of 169 to 170 °C.
To `CCCN1CCC(O)(c2ccc(F)c(F)c2)C1` (centres unmarked) (as salt: oxalic acid salt) [Example 7, 3-(3,4-DIFLUOROPHENYL)-1-PROPYLPYRROLIDIN-3-OL] belongs 131 to 132 °C; to `CN1CCC(F)(c2cc(F)cc(F)c2)C1` (centres unmarked) (as salt: oxalic acid salt) [Example 11, 3-(3,5-DIFLUOROPHENYL)-3-FLUORO-1-METHYLPYRROLIDINE], 128 to 129 °C.
For the molecule `Fc1cc(F)cc(C2(F)CCNC2)c1` (centres unmarked) (as salt: oxalic acid salt) [Example 13, 3-(3,5-DIFLUOROPHENYL)-3-FLUOROPYRROLIDINE], the melting point was in the range of 176 to 177 °C.
As for `CN1CCC(O)(c2cc(F)cc(F)c2)C1` (centres unmarked) (as salt: oxalic acid salt) [Example 18], the figure is 159 to 162 °C; as for `CCCN1CCC(O)(c2cc(F)cc(F)c2)C1` (centres unmarked) (as salt: oxalic acid salt) [Example 29], 117 to 118 °C; as for `CCCN1CCC(O)(c2cc(F)cc(F)c2)C1` (centres unmarked) (as salt: oxalic acid salt) [Example 30], 118 to 119 °C.
As for `CCN1CCC(O)(c2cc(F)cc(Cl)c2)C1` (centres unmarked) (as salt: oxalic acid salt) [Example 31], the figure is 117 to 118 °C; as for `CCN1CCC(O)(c2cccc(Cl)c2F)C1` (centres unmarked) (as salt: oxalic acid salt) [Example 35], 71 to 74 °C.
As for `CCN1CCC(O)(c2cccc(Cl)c2F)C1` (centres unmarked) (as salt: oxalic acid salt) [Example 37], the figure is 72 to 74 °C; as for `CCCCN1CCC(O)(c2cccc(F)c2F)C1` (centres unmarked) (as salt: oxalic acid salt) [Example 38], 155.3 °C.
`CC(C)CN1CCC(O)(c2cccc(F)c2F)C1` (centres unmarked) (as salt: oxalic acid salt) [Example 39] returned a melting point of 176 °C.
As for `CN1CCC(O)(c2cccc(F)c2F)C1` (centres unmarked) (as salt: oxalic acid salt) [Example 40], the figure is 134.3 °C; as for `C=CCN1CCC(O)(c2cccc(F)c2F)C1` (centres unmarked) (as salt: oxalic acid salt) [Example 41], 120 °C.
Molecule `C=CCN1CCC(O)(c2cc(F)cc(F)c2)C1` (centres unmarked) (as salt: oxalic acid salt) [Example 44] yielded a melting point of 102 to 103 °C.
In the case of `CC(C)CN1CCC(O)(c2cc(F)cc(F)c2)C1` (centres unmarked) (as salt: oxalic acid salt) [Example 46], the melting point was 162 to 163 °C.
As for `CN1CCC(O)(c2cc(F)cc(F)c2)C1` (centres unmarked) (as salt: oxalic acid salt) [Example 47], the figure is 134 to 135 °C.
To `OC1(c2cccc(F)c2F)CCN(CC2CC2)C1` (centres unmarked) (as salt: oxalic acid salt) [Example 49] belongs 172.8 °C.
To `CN1CCC(O)(c2cc(F)cc(F)c2)C1` (centres unmarked) (as salt: oxalic acid salt) [Example 52] belongs 150 °C; to `CC(C)CN1CCC(O)(c2cc(F)cc(F)c2)C1` (centres unmarked) (as salt: oxalic acid salt) [Example 53], 164 to 165 °C.
As for `C=CCN1CCC(O)(c2cc(F)cc(F)c2)C1` (centres unmarked) (as salt: oxalic acid salt) [Example 55], the melting point lay in the range of 104 to 105 °C.
As for `CCCCN1CCC(O)(c2cccc(F)c2F)C1` (centres unmarked) (as salt: oxalic acid salt) [Example 58], the figure is 157 to 158 °C.
